Reference: patent publication US11254663B2 (BRISTOL-MYERS SQUIBB COMPANY, priority 2019, dated 2022)

Target: FXR (Homo sapiens (Human), UniProt Q96RI1)
Experiment: FXR EC50 (FXR agonist potency reported with each Example)
Format: cell-based

FXR, sequence (Q96RI1 262-486): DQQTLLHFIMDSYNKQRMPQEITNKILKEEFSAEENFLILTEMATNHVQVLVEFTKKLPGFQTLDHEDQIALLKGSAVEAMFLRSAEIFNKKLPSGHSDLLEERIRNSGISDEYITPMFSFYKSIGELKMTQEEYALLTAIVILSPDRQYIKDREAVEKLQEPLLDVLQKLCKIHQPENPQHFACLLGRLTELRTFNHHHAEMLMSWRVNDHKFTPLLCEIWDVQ

Row | SMILES | EC50 [µM]
1 | O=C(N(CC12CCC(c3nc(C4CC4)no3)(CC1)CC2)c1cccc(-c2cnn(CC(F)F)c2)c1)C12CC(F)(C1)C2 [Example 161, N-((4-(3-cyclopropyl-1,2,4-oxadiazol-5-yl)bicyclo[2.2.2]octan-1-yl)methyl)-N-(3-(1-(2,2-difluoroethyl)-1H-pyrazol-4-yl)phenyl)-3-fluorobicyclo[1.1.1]pentane-1-carboxamide] | 0.096
2 | CCc1noc(-c2cccc(N(CC34CCC(c5ccc(C(C)(C)C#N)cc5)(CC3)OC4)C(=O)C3CCC3)c2)n1 [Example 48, N-((1-(4-(2-cyanopropan-2-yl)phenyl)-2-oxabicyclo[2.2.2]octan-4-yl)methyl)-N-(3-(3-ethyl-1,2,4-oxadiazol-5-yl)phenyl)cyclobutanecarboxamide] | 0.299
3 | CCn1cc(-c2cccc(N(CC34CCC(c5nc(C6CC6)no5)(CC3)CC4)C(=O)C34CC(F)(C3)C4)c2)oc1=O [Example 80, N-((4-(3-cyclopropyl-1,2,4-oxadiazol-5-yl)bicyclo[2.2.2]octan-1-yl)methyl)-N-(3-(3-ethyl-2-oxo-2,3-dihydrooxazol-5-yl)phenyl)-3-fluorobicyclo[1.1.1]pentane-1-carboxamide] | 0.265
4 | O=C(N(CC12CCC(c3noc(C(F)F)n3)(CC1)CC2)c1cccc(-c2nnc(C3CC3)o2)c1)C12CC(F)(C1)C2 [Example 156, N-(3-(5-cyclopropyl-1,3,4-oxadiazol-2-yl)phenyl)-N-((4-(5-(difluoromethyl)-1,2,4-oxadiazol-3-yl)bicyclo[2.2.2]octan-1-yl)methyl)-3-fluorobicyclo[1.1.1]pentane-1-carboxamide] | 0.103
5 | CCCc1ncc(-c2cccc(N(CC34CCC(c5nc(C6CC6)no5)(CC3)CC4)C(=O)C3CC(C(F)F)C3)c2)o1 (stereo not shown) [Example 28, N-((4-(3-cyclopropyl-1,2,4-oxadiazol-5-yl)bicyclo[2.2.2]octan-1-yl)methyl)-3-(difluoromethyl)-N-(3-(2-propyloxazol-5-yl)phenyl)cyclobutane-1-carboxamide] | 0.248
6 | O=C(C1CC(C(F)F)C1)N(CC12CCC(c3nnc(C4CC4)o3)(CC1)CC2)c1cccc(-c2nnc(C3CC3)o2)c1 (stereo not shown) [Example 134, N-((4-(5-cyclopropyl-1,3,4-oxadiazol-2-yl)bicyclo[2.2.2]octan-1-yl)methyl)-N-(3-(5-cyclopropyl-1,3,4-oxadiazol-2-yl)phenyl)-3-(difluoromethyl)cyclobutane-1-carboxamide] | 0.636
7 | O=C(C1CCC1)N(CC12CCC(c3nc(C4CC4)no3)(CC1)CC2)c1cccc(-c2cnc(C3CC3)o2)c1 [Example 20, N-((4-(3-cyclopropyl-1,2,4-oxadiazol-5-yl)bicyclo[2.2.2]octan-1-yl)methyl)-N-(3-(2-cyclopropyloxazol-5-yl)phenyl)cyclobutanecarboxamide] | 0.138
8 | O=C(N(CC12CCC(c3nc(C4CC4)no3)(CC1)CC2)c1cccc(-c2noc(C(F)F)n2)c1)C12CC(F)(C1)C2 [Example 105, N-((4-(3-cyclopropyl-1,2,4-oxadiazol-5-yl)bicyclo[2.2.2]octan-1-yl)methyl)-N-(3-(5-(difluoromethyl)-1,2,4-oxadiazol-3-yl)phenyl)-3-fluorobicyclo[1.1.1]pentane-1-carboxamide] | 0.057
9 | O=C(C1CC(C(F)F)C1)N(CC12CCC(c3nc(C4CC4)no3)(CC1)CC2)c1cccc(-c2cnc(C3CC3)o2)c1 (stereo not shown) [Example 24, N-((4-(3-cyclopropyl-1,2,4-oxadiazol-5-yl)bicyclo[2.2.2]octan-1-yl)methyl)-N-(3-(2-cyclopropyloxazol-5-yl)phenyl)-3-(difluoromethyl)cyclobutane-1-carboxamide] | 0.281
10 | CN(C)[C@H]1CCN(C(=O)N(CC23CCC(c4nc(C5CC5)no4)(CC2)CC3)c2cccc(-c3nc(C4CC4)no3)c2)C1 [Example 93, (S)—N-((4-(3-cyclopropyl-1,2,4-oxadiazol-5-yl)bicyclo[2.2.2]octan-1-yl)methyl)-N-(3-(3-cyclopropyl-1,2,4-oxadiazol-5-yl)phenyl)-3-(dimethylamino)pyrrolidine-1-carboxamide] | 2.69
11 | O=C(C1CC(F)(F)C1)N(CC12CCC(c3nc(C4CC4)no3)(CC1)OC2)c1cccc(-c2nc(C3CC3)no2)c1 [Example 197, N-((1-(3-cyclopropyl-1,2,4-oxadiazol-5-yl)-2-oxabicyclo[2.2.2]octan-4-yl)methyl)-N-(3-(3-cyclopropyl-1,2,4-oxadiazol-5-yl)phenyl)-3,3-difluorocyclobutane-1-carboxamide] | 0.965
12 | O=C(N(CC12CCC(c3nc(C4CC4)co3)(CC1)CC2)c1cccc(-c2cnc(C3CC3)o2)c1)C12CC(F)(C1)C2 [Example 82, N-((4-(4-cyclopropyloxazol-2-yl)bicyclo[2.2.2]octan-1-yl)methyl)-N-(3-(2-cyclopropyloxazol-5-yl)phenyl)-3-fluorobicyclo[1.1.1]pentane-1-carboxamide] | 0.048
13 | O=C(C1CC(C(F)F)C1)N(CC12CCC(c3nnc(C4CC4)o3)(CC1)CC2)c1cccc(-c2nc(C3CC3)no2)c1 (stereo not shown) [Example 139, N-(3-(3-cyclopropyl-1,2,4-oxadiazol-5-yl)phenyl)-N-((4-(5-cyclopropyl-1,3,4-oxadiazol-2-yl)bicyclo[2.2.2]octan-1-yl)methyl)-3-(difluoromethyl)cyclobutane-1-carboxamide] | 0.384
14 | CO[C@H]1C[C@@H](C(=O)N(CC23CCC(c4nc(C(C)(C)C)no4)(CC2)CC3)c2cccc(-c3nc(C4CC4)no3)c2)C1 [Example 192, (1S,3S)—N-((4-(3-(tert-butyl)-1,2,4-oxadiazol-5-yl)bicyclo[2.2.2]octan-1-yl)methyl)-N-(3-(3-cyclopropyl-1,2,4-oxadiazol-5-yl)phenyl)-3-methoxycyclobutane-1-carboxamide] | 0.449
15 | CC(C)(C)c1nc(C23CCC(CN(C(=O)C45CC(F)(C4)C5)c4cccc(-c5cnn(S(=O)(=O)C6CC6)c5)c4)(CC2)CC3)no1 [Example 195, N-((4-(5-(tert-butyl)-1,2,4-oxadiazol-3-yl)bicyclo[2.2.2]octan-1-yl)methyl)-N-(3-(1-(cyclopropylsulfonyl)-1H-pyrazol-4-yl)phenyl)-3-fluorobicyclo[1.1.1]pentane-1-carboxamide] | 0.02
16 | O=C(N(CC12CCC(c3cnc(C(F)(F)F)nc3)(CC1)OC2)c1cccc(-c2noc(C(F)F)n2)c1)C12CC(F)(C1)C2 [Example 182, N-(3-(5-(difluoromethyl)-1,2,4-oxadiazol-3-yl)phenyl)-3-fluoro-N-((1-(2-(trifluoromethyl)pyrimidin-5-yl)-2-oxabicyclo[2.2.2]octan-4-yl)methyl) bicyclo[1.1.1]pentane-1-carboxamide] | 2
17 | Cc1noc(-c2cccc(N(CC34CCC(c5ccc(C6CC6)cc5)(CC3)CC4)C(=O)C3CC3)c2)n1 [Example 2, N-((4-(4-cyclopropylphenyl)bicyclo[2.2.2]octan-1-yl)methyl)-N-(3-(3-methyl-1,2,4-oxadiazol-5-yl)phenyl)cyclopropanecarboxamide] | 3.06
18 | O=C(C1CCC(F)(F)C1)N(CC12CCC(c3nc(C4CC4)no3)(CC1)CC2)c1cccc(-c2nc(C3CC3)no2)c1 (stereo not shown) [Example 11, N-((4-(3-cyclopropyl-1,2,4-oxadiazol-5-yl)bicyclo[2.2.2]octan-1-yl)methyl)-N-(3-(3-cyclopropyl-1,2,4-oxadiazol-5-yl)phenyl)-3,3-difluorocyclopentane-1-carboxamide] | 0.282
19 | CCOC(=O)c1coc(-c2cccc(N(CC34CCC(c5nc(C)no5)(CC3)CC4)C(=O)C34CC(F)(C3)C4)c2)n1 [Example 12, Ethyl 2-(3-(3-fluoro-N-((4-(3-methyl-1,2,4-oxadiazol-5-yl)bicyclo[2.2.2]octan-1-yl)methyl)bicyclo[1.1.1]pentane-1-carboxamido)phenyl)oxazole-4-carboxylate] | 1.71
20 | Cc1noc(C23CCC(CN(C(=O)C45CC(F)(C4)C5)c4cccc(-c5cnc(C6CCOCC6)o5)c4)(CC2)CC3)n1 [Example 34, 3-Fluoro-N-((4-(3-methyl-1,2,4-oxadiazol-5-yl)bicyclo[2.2.2]octan-1-yl)methyl)-N-(3-(2-(tetrahydro-2H-pyran-4-yl)oxazol-5-yl)phenyl)bicyclo[1.1.1]pentane-1-carboxamide] | 1.52
21 | O=C(N(CC12CCC(c3nc(C4CC4)cs3)(CC1)CC2)c1cccc(-c2nc(C3CC3)no2)c1)C12CC(F)(C1)C2 [Example 100, N-(3-(3-cyclopropyl-1,2,4-oxadiazol-5-yl)phenyl)-N-((4-(4-cyclopropylthiazol-2-yl)bicyclo[2.2.2]octan-1-yl)methyl)-3-fluorobicyclo[1.1.1]pentane-1-carboxamide] | 0.164
22 | O=C(N(CC12CCC(c3nc(C4CC4)no3)(CC1)CC2)c1cccc(-c2nnc(C3CC3)o2)c1)C12CC(F)(C1)C2 [Example 86, N-((4-(3-cyclopropyl-1,2,4-oxadiazol-5-yl)bicyclo[2.2.2]octan-1-yl)methyl)-N-(3-(5-cyclopropyl-1,3,4-oxadiazol-2-yl)phenyl)-3-fluorobicyclo[1.1.1]pentane-1-carboxamide] | 0.123
23 | CCOc1nnc(-c2cccc(N(CC34CCC(c5nc(C6CC6)no5)(CC3)CC4)C(=O)C3CCC(F)(F)C3)c2)o1 (stereo not shown) [Example 55, N-((4-(3-cyclopropyl-1,2,4-oxadiazol-5-yl)bicyclo[2.2.2]octan-1-yl)methyl)-N-(3-(5-ethoxy-1,3,4-oxadiazol-2-yl)phenyl)-3,3-difluorocyclopentane-1-carboxamide] | 0.127
24 | O=C(N(CC12CCC(c3nc(C(F)F)no3)(CC1)CC2)c1cccc(-c2noc(C3CC3)n2)c1)C12CC(F)(C1)C2 [Example 172, N-(3-(5-cyclopropyl-1,2,4-oxadiazol-3-yl)phenyl)-N-((4-(3-(difluoromethyl)-1,2,4-oxadiazol-5-yl)bicyclo[2.2.2]octan-1-yl)methyl)-3-fluorobicyclo[1.1.1]pentane-1-carboxamide] | 0.154
25 | O=C(N(CC12CCC(c3nc(C4CC4)no3)(CC1)CC2)c1cccc(-c2nc(C(F)F)co2)c1)C12CC(F)(C1)C2 [Example 40, N-((4-(3-cyclopropyl-1,2,4-oxadiazol-5-yl)bicyclo[2.2.2]octan-1-yl)methyl)-N-(3-(4-(difluoromethyl)oxazol-2-yl)phenyl)-3-fluorobicyclo[1.1.1]pentane-1-carboxamide] | 0.243
